Consider 18 compounds from US8242275B2, “Bicyclic pyrazole compounds as antibacterial agents” (Janssen Pharmaceutica NV, priority 2005, dated 2012).

For one experiment, the system named is S. pneumoniae ATCC49619. In words: In vitro antibacterial activity (MIC assay), broth microdilution. To be noted: Streptococcus pneumoniae, ATCC49619; read-out: S. pneumoniae ATCC49619 MIC. It is filed as cell-based. Here is the method: (§1) Minimal inhibitory concentration (MIC) has been an indicator of in vitro antibacterial activity widely used in the art. The in vitro antibacterial activity of the compounds was determined by the broth microdilution method described by the National Committee for Clinical Laboratory Standards (NCCLS) in the NCCLS Document M7-A5, Vol. 20, No. 2, “Methods for Dilution Antimicrobial Susceptibility Test for Bacteria that Grow Aerobically—Fifth Edition”, which is incorporated herein by reference.
(§2) In this method, an aliquot of test compound from an 11-point series of 2-fold serial dilutions of compounds in 100% DMSO was added to wells in microdilution plates. The test organisms were prepared by adjusting the turbidity of actively growing broth cultures so that the final concentration of test organism after addition to wells with or without compounds was approximately 5×10^5 CFU/mL.
(§3) Following inoculation of the microdilution plates, the plates were incubated at 35° C. for 16-24 h and then scored for bacterial growth. […] The amount of growth in the wells containing the test compound was compared with the amount of growth in the growth-control wells (no test compound used) in each plate, and with the amount of growth in the wells containing control compounds (such as ciprofloxacin). Compounds of the present invention were tested against several bacterial strains. The MIC values (in μg/mL) are presented in Table 1 for Gram-negative (E. coli KL-16 (GSC strain 4245); data marked as (*) was obtained with E. coli ATCC25922) and Gram-positive bacteria (S. aureus ATCC13709; S. pneumoniae ATCC49619).

The test system of another experiment is S. aureus ATCC13709. The experiment is described as above. The format is cell-based. To be noted: Staphylococcus aureus, ATCC13709; read-out: S. aureus ATCC13709 MIC. The protocol: as §1, §2, §3
Experiment [1] deals with E. coli KL-16 (GSC strain 4245). The experiment is described as above. The format is cell-based. To be noted: Escherichia coli. Here is the method: as §1, §2, §3
Another experiment has as its target T1, E. coli DNA gyrase (Escherichia coli, UniProt P0AES4+P0AES6).
T1 construct: purchased John Innes Enterprises Ltd. (John Innes Centre, UK)
The experiment in a line: DNA gyrase inhibition assay (supercoiling). The format is biochemical. To be noted: E. coli DNA gyrase supercoiling, visual inspection of gels; read-out: DNA Gyrase IC50 (converted). The protocol: Inhibition of the supercoiling activity of E. coli DNA gyrase was determined using enzymes, buffers and substrates received from John Innes Enterprises Ltd. (John Innes Centre, UK). The reactions were performed according to the manufacturer's directions, with the following modifications.
DNA supercoiling reactions were carried out in a total reaction volume of 20 μL containing 250 ng of relaxed pBR322, 35 mM Tris-HCl (pH 7.5), 24 mM KCl, 4 mM MgCl2, 2 mM dithiothreitol, 1.8 mM spermidine, 1 mM ATP, 6.5% glycerol and 100 μg/mL albumin. Compounds diluted in 10% DMSO were added to the reaction mixture to reach a final concentration of 0.5% DMSO. Enzyme was diluted to […] in a solution of 50 mM Tris-HCl (pH 7.5), 100 mM KCl, 2 mM dithiothreitol, 1 mM EDTA, and 50% glycerol. Diluted enzyme (0.2 unit) was added to each reaction.
The reactions were incubated at 37° C. for 30 min. The reactions were then cooled to 0° C., followed by addition of 3 μL of 40% glycerol, 100 mM Tris-HCl (pH 7.5), 50 mM EDTA, 0.5% SDS and 0.1% bromophenol blue. Samples were separated on 1.0% agarose gels. Gels were stained with Ethidium bromide and photographed with a Stratagene Eagle Eye II.

As usually defined, the MIC is the lowest concentration that inhibits growth of the organism. A word on the IC50: it is the concentration that gives 50% inhibition.

Values after ≈ are worked out from the molar mass of the structure shown.

T1 sequence (P0AES4 whole entry, one chain of several): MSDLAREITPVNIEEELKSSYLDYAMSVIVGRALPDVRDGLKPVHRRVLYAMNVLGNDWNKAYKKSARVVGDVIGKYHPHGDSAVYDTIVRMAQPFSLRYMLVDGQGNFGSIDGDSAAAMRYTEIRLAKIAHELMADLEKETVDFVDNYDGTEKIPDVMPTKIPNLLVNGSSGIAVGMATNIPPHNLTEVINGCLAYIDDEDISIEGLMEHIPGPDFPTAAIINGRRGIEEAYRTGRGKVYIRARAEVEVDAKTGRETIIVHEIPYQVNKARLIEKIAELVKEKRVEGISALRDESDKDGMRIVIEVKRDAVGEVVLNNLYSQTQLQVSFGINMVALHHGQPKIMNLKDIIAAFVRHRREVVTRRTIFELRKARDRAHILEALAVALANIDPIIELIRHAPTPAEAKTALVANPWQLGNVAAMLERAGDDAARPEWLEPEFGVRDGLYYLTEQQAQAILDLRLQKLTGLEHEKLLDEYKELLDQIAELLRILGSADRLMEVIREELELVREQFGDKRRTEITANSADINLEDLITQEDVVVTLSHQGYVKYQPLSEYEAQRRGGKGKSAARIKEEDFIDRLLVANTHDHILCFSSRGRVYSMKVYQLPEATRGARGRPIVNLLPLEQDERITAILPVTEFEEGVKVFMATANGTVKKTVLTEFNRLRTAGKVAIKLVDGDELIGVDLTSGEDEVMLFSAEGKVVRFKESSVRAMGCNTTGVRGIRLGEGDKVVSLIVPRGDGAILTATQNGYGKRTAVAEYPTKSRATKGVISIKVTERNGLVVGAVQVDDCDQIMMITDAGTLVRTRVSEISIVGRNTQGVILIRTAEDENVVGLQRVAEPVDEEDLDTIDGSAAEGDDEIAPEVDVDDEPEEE

For the compound `COc1ccc2nccc(-n3cc4c(n3)CCC(NC(=O)c3cc5c(cc3Cl)SCC(=O)N5)C4)c2n1` (stereo not drawn) [Example 6, 7-Chloro-3-oxo-3,4-dihydro-2H-benzo[1,4]thiazine-6-carboxylic acid [2-(6-methoxy-[1,5]naphthyridin-4-yl)-4,5,6,7-tetrahydro-2H-indazol-5-yl]-amide], the figures for the MIC (with S. pneumoniae ATCC49619; with S. aureus ATCC13709; in experiment [1]) were 4 µg/mL (≈ 7.68 µM), below 0.125 µg/mL and 2 µg/mL (≈ 3.84 µM), respectively. Besides, on E. coli DNA gyrase, the IC50 was 0.23 µM.

As to `COc1ccc2nccc(-n3cc4c(n3)CCC(NC(=O)c3cc5c(F)cc(F)cc5[nH]3)C4)c2n1` (stereo not drawn) [Example 7, 4,6-Difluoro-1H-indole-2-carboxylic acid [2-(6-methoxyl-[1,5]naphthyridin-4-yl)-4,5,6,7-tetrahydro-2H-indazol-5-yl]-amide], the MIC with S. pneumoniae ATCC49619 was above 128 µg/mL; in the experiment with S. aureus ATCC13709, 0.25 µg/mL (≈ 0.527 µM); in experiment [1], above 128 µg/mL. For the same compound, the IC50 on E. coli DNA gyrase is 4.22 µM.

Consider `COc1ccc2nccc(-n3cc4c(n3)CCC(NC(=O)c3nc5ccccc5[nH]3)C4)c2n1` (stereo not drawn) [Example 8, 1H-Benzoimidazole-2-carboxylic acid [2-(6-methoxy-[1,5]naphthyridin-4-yl)-4,5,6,7-tetrahydro-2H-indazol-5-yl]-amide], for which the MIC with S. pneumoniae ATCC49619 was 4 µg/mL (≈ 9.1 µM); in the experiment on S. aureus ATCC13709 it was 0.25 µg/mL (≈ 0.569 µM); in experiment [1], above 128 µg/mL. Also, the IC50 on E. coli DNA gyrase is above 36.4 µM.

Regarding `COc1ccc2nccc(-n3cc4c(n3)CCC(NC(=O)C(=O)c3cc5ccccc5[nH]3)C4)c2n1` (stereo not drawn) [Example 9, 2-(1H-Indol-2-yl)-N-[2-(6-methoxy-[1,5]naphthyridin-4-yl)-4,5,6,7-tetrahydro-2H-indazol-5-yl]-2-oxo-acetamide], the MIC was 4 µg/mL (≈ 8.57 µM) in the experiment on S. pneumoniae ATCC49619, 0.25 µg/mL (≈ 0.536 µM) in the experiment on S. aureus ATCC13709 and above 128 µg/mL in experiment [1]. Besides, the IC50 at E. coli DNA gyrase was above 34.3 µM.

Take `COc1ccc2nccc(-n3cc4c(n3)CCC(NC(=O)/C=C/c3cc(F)cc(F)c3)C4)c2n1` (stereo not drawn) [Example 11, 3-(3,5-Difluoro-phenyl)-N-[2-(6-methoxy-[1,5]naphthyridin-4-yl)-4,5,6,7-tetrahydro-2H-indazol-5-yl]-acrylamide]: the results for the MIC (in the experiment with S. pneumoniae ATCC49619; in the experiment with S. aureus ATCC13709; in experiment [1]) were 16 µg/mL (≈ 34.7 µM), below 0.125 µg/mL and above 128 µg/mL, respectively. Further, the IC50 on E. coli DNA gyrase is 4.33 µM.

As for `COc1ccc2nccc(-n3cc4c(n3)CCC(NC(=O)/C=C/c3cccc(Cl)c3)C4)c2n1` (stereo not drawn) [Example 12, 3-(3-Chloro-phenyl)-N-[2-(6-methoxy-[1,5]naphthyridin-4-yl)-4,5,6,7-tetrahydro-2H-indazol-5-yl]-acrylamide], the MIC is 8 µg/mL (≈ 17.4 µM) in the experiment on S. pneumoniae ATCC49619, 0.25 µg/mL (≈ 0.544 µM) in the experiment on S. aureus ATCC13709 and above 128 µg/mL in experiment [1]. In addition, the IC50 at E. coli DNA gyrase is 4.35 µM.

In the case of `COc1ccc2nccc(-n3cc4c(n3)CCC(NC(=O)/C=C/c3cc([N+](=O)[O-])ccc3Cl)C4)c2n1` (stereo not drawn) [Example 94, 3-(2-Chloro-5-nitro-phenyl)-N-[2-(6-methoxy-[1,5]naphthyridin-4-yl)-4,5,6,7-tetrahydro-2H-indazol-5-yl]-acrylamide], the MIC in the experiment on S. pneumoniae ATCC49619 is above 128 µg/mL; in the experiment on S. aureus ATCC13709, 2 µg/mL (≈ 3.96 µM); in experiment [1], above 128 µg/mL.

On to `COc1ccc2nccc(-n3ncc4c3CCC(NC(=O)c3cc5c(cc3Br)SCC(=O)N5)C4)c2c1` (stereo not drawn) [Example 98, 7-Bromo-3-oxo-3,4-dihydro-2H-benzo[1,4]thiazine-6-carboxylic acid [1-(6-methoxy-quinolin-4-yl)-4,5,6,7-tetrahydro-1H-indazol-5-yl]-amide], for which the values for the MIC (in the experiment on S. pneumoniae ATCC49619; in the experiment with S. aureus ATCC13709; in experiment [1]) were 64 µg/mL (≈ 113 µM), 16 µg/mL (≈ 28.3 µM) and above 128 µg/mL, respectively.

As for `COc1ccc2nccc(-n3ncc4c3CCC(NC(=O)c3cc5c(cc3C(F)(F)F)SCC(=O)N5)C4)c2c1` (stereo not drawn) [Example 99, 3-Oxo-7-trifluoromethyl-3,4-dihydro-2H-benzo[1,4]thiazine-6-carboxylic acid [1-(6-methoxy-quinolin-4-yl)-4,5,6,7-tetrahydro-1H-indazol-5-yl]-amide], the MIC in the experiment with S. pneumoniae ATCC49619 was above 128 µg/mL; in the experiment on S. aureus ATCC13709 it was 2 µg/mL (≈ 3.61 µM); in experiment [1], above 128 µg/mL.

Take `COc1ccc2nccc(-n3cc4c(n3)CCC(NC(=O)c3ccc(C)c([N+](=O)[O-])c3)C4)c2n1` (stereo not drawn) [Example 110, N-[2-(6-Methoxy-[1,5]naphthyridin-4-yl)-4,5,6,7-tetrahydro-2H-indazol-5-yl]-4-methyl-3-nitro-benzamide]: the MIC in the experiment on S. pneumoniae ATCC49619 was 8 µg/mL (≈ 17.4 µM); in the experiment with S. aureus ATCC13709, 0.25 µg/mL (≈ 0.545 µM); in experiment [1], above 128 µg/mL.

For `COc1ccc2nccc(-n3cc4c(n3)CCC(NC(=O)c3ccc(OC)c([N+](=O)[O-])c3)C4)c2n1` (stereo not drawn) [Example 119, 4-Methoxy-N-[2-(6-methoxy-[1,5]naphthyridin-4-yl)-4,5,6,7-tetrahydro-2H-indazol-5-yl]-3-nitro-benzamide], the values for the MIC (in the experiment on S. pneumoniae ATCC49619; with S. aureus ATCC13709; in experiment [1]) were 8 µg/mL (≈ 16.9 µM), 4 µg/mL (≈ 8.43 µM) and above 128 µg/mL, respectively.

Turning to `COc1ccc2nccc(-n3cc4c(n3)CCC(NCC(=O)Nc3cccc(C(F)(F)F)c3)C4)c2n1` (stereo not drawn) [Example 122, 2-[2-(6-Methoxy-[1,5]naphthyridin-4-yl)-4,5,6,7-tetrahydro-2H-indazol-5-ylamino]-N-(3-trifluoromethyl-phenyl)-acetamide], the MIC in the experiment on S. pneumoniae ATCC49619 is 32 µg/mL (≈ 64.5 µM); in the experiment with S. aureus ATCC13709 it was 2 µg/mL (≈ 4.03 µM); in experiment [1], above 128 µg/mL.

Take `COc1ccc2nccc(-n3cc4c(n3)CCC(NCC(=O)Nc3cccc(Cl)c3)C4)c2n1` (stereo not drawn) [Example 123, N-(3-Chloro-phenyl)-2-[2-(6-methoxy-[1,5]naphthyridin-4-yl)-4,5,6,7-tetrahydro-2H-indazol-5-ylamino]-acetamide]: the values for the MIC (in the experiment with S. pneumoniae ATCC49619; in the experiment on S. aureus ATCC13709; in experiment [1]) were above 128 µg/mL, 1 µg/mL (≈ 2.16 µM) and above 128 µg/mL, respectively.

Turning to `COc1ccc2nccc(-n3cc4c(n3)CCC(NC(=O)c3cc(NC(C)=O)ccc3Br)C4)c2n1` (stereo not drawn) [Example 124, 5-Acetylamino-2-bromo-N-[2-(6-methoxy-[1,5]naphthyridin-4-yl)-4,5,6,7-tetrahydro-2H-indazol-5-yl]-benzamide], the MIC in the experiment on S. pneumoniae ATCC49619 is above 128 µg/mL; with S. aureus ATCC13709 it was 4 µg/mL (≈ 7.47 µM); in experiment [1], above 128 µg/mL.

For the compound `COc1ccc2nccc(-n3cc4c(n3)CCC(NC(=O)c3cc(F)c(Cl)cc3Cl)C4)c2n1` (stereo not drawn) [Example 125, 2,4-Dichloro-5-fluoro-N-[2-(6-methoxy-[1,5]naphthyridin-4-yl)-4,5,6,7-tetrahydro-2H-indazol-5-yl]-benzamide], the MIC in the experiment on S. pneumoniae ATCC49619 was 8 µg/mL (≈ 16.4 µM); in the experiment with S. aureus ATCC13709, 0.25 µg/mL (≈ 0.514 µM); in experiment [1], above 128 µg/mL.

As to `COc1ccc2nccc(-n3cc4c(n3)CCC(NCc3ccc(N(C)C)c(C#N)c3F)C4)c2c1` (stereo not drawn) [Example 126, 6-Dimethylamino-2-fluoro-3-{[2-(6-methoxy-quinolin-4-yl)-4,5,6,7-tetrahydro-2H-indazol-5-ylamino]-methyl}-benzonitrile], the results for the MIC (with S. pneumoniae ATCC49619; in the experiment on S. aureus ATCC13709; in experiment [1]) were 2 µg/mL (≈ 4.25 µM), 1 µg/mL (≈ 2.13 µM) and above 128 µg/mL, respectively.

Regarding `COc1ccc2nccc(-n3cc4c(n3)CCC(NC(=O)c3cc(F)c5c(c3)OCCO5)C4)c2n1` (stereo not drawn) [Example 127, 8-Fluoro-2,3-dihydro-benzo[1,4]dioxine-6-carboxylic acid [2-(6-methoxy-[1,5]naphthyridin-4-yl)-4,5,6,7-tetrahydro-2H-indazol-5-yl]-amide], the MIC with S. pneumoniae ATCC49619 is 8 µg/mL (≈ 16.8 µM); in the experiment with S. aureus ATCC13709, 0.5 µg/mL (≈ 1.05 µM); in experiment [1] it was above 128 µg/mL.

`COc1ccc2nccc(-n3cc4c(n3)CCC(NC(=O)c3cc(F)c5c(c3)OCCO5)C4)c2c1` (stereo not drawn) [Example 128, 8-Fluoro-2,3-dihydro-benzo[1,4]dioxine-6-carboxylic acid [2-(6-methoxy-quinolin-4-yl)-4,5,6,7-tetrahydro-2H-indazol-5-yl]-amide]: the results for the minimal inhibitory concentration (MIC) (in the experiment with S. pneumoniae ATCC49619; in the experiment on S. aureus ATCC13709; in experiment [1]) were 8 µg/mL (≈ 16.9 µM), 2 µg/mL (≈ 4.22 µM) and above 128 µg/mL, respectively.
